The values that follow come from patent US9730906B2, “α-derivatives of cis-monounsaturated fatty acids for use as medicines” (UNIVERSITAT DE LES ILLES BALEARS, priority 2008, dated 2017).

The subject of assay [1] is Jurkat. Kind of assay: Effect of OHOD on cancer cells in culture (Table 2). As to conditions: Lym-Leukaemia. In kind it is cell-based, human. Also on record: key to Anti-tumour effect: + [inhibition of growth]; ++ [total halt of growth]; +++ [total removal of tumour cells]; key to Mechanism of action: P [anti-proliferative]; D [differentiation]; A [apoptosis]. The procedure:
(§1) Also, a series of α-derivatives of cis-monounsaturated fatty acids were used to investigate their effectiveness in cancer treatment. Two types of experiment were performed. Firstly, the dependency of the anti-tumour effect on concentration was investigated. To perform these experiments, human lung cancer cells (A549) were cultivated in RPMI medium, supplemented with 10% foetal bovine […], 10 mM Hepes (pH 7.4), 2 mM glutamine, 2 g/l bicarbonate, 1 g/l glucose, 100 units/ml penicillin, 0.1 mg/ml streptomycin, 0.25 μg/ml Amphotericin B, at 37° C. and in the presence of 5% CO2. In a first experimental series, these cells were treated with various concentrations (0-400 μM) of OHOD and MOD11 and the number of cells was determined by flow cytometry (FIG. 3A). […] In a second series, the anti-tumour effectiveness on A549 lung cancer cells was investigated at a single concentration (150 μM) and a time of 48 hours (FIG. 3B). […] Obviously, among the previous molecules, some lacked both modifications on the α-carbon and the double bond in cis configuration (EO, HDO, ODO) and had no therapeutic effect.
(§2) In a second experimental series, designed to discover whether these molecules are effective in treatment of different types of tumours, the effect of OHOD at various concentrations on human cells of different types of cancer was studied. These experiments were performed as described before, except that the M220 and HT-29 cell lines were cultured in DMEM medium and the MDA-MB-231 line was incubated in Leibowitz L-15 medium supplemented with 15% foetal bovine […]. […] Where the nature of the tumour process requires, application can be topical (use on the skin of active products for the treatment of melanoma and other cutaneous abnormalities of cancerous nature), which can be considered as cosmetic treatments when attempts are made to correct aesthetic defects.

The subject of assay [2] is C-6. The assay is described as above. In kind it is cell-based, human. Also on record: key to Anti-tumour effect: + [inhibition of growth]; ++ [total halt of growth]; +++ [total removal of tumour cells]. The settings on record: C-6, Glio-Brain. The procedure:
as §1, §2

In assay [3] the test system is HL-60. The description is as above. The settings on record: HL-60, Myel-Leukaemia. Also on record: key to Anti-tumour effect: + [inhibition of growth]; ++ [total halt of growth]; +++ [total removal of tumour cells]. In kind it is cell-based, human. The procedure:
as §1, §2

Assay [4] concerns PC3. Described as above. Also on record: key to Anti-tumour effect: + [inhibition of growth]; ++ [total halt of growth]; +++ [total removal of tumour cells]. In kind it is cell-based, human. As to conditions: PC3, Prostate. The procedure:
as §1, §2

Assay [5] deals with MCF7. Described as above. In kind it is cell-based, human. Also on record: key: + [inhibition of growth]; ++ [total halt of growth]; +++ [total removal of tumour cells]. The settings on record: MCF7, Breast. How it is done:
as §1, §2

The test system of assay [6] is NCI-H460. Described as above. As to conditions: NCI-H460, Lung (CPNM). Also on record: key: + [inhibition of growth]; ++ [total halt of growth]; +++ [total removal of tumour cells]. In kind it is cell-based, human. The procedure:
as §1, §2

Assay [7] relates to SF-268. Described as above. In kind it is cell-based, human. Also on record: key: + [inhibition of growth]; ++ [total halt of growth]; +++ [total removal of tumour cells]. The settings on record: SF-268, Glioma. The procedure: as §1, §2
Assay [8] has as its system cadherin. Nature of the assay: Cadherin levels in A549 cells (antibody, confocal microscopy). In kind it is cell-based, human. The settings on record: 50 μM OHOD (48 h). How it is done: FIG. 4. Cancer cells (A549) were incubated in the absence (FIG. 4A) and presence (FIG. 4B) of OHOD ([…], 48 h). Then they were fixed, incubated in the presence of an antibody against cadherin and were observed by confocal microscopy. Treatments with 50 μM OHOD (48 h) induced an increase of 73.6±5.4% in the levels of this protein. In treatments with the fatty acids of the invention, a significant increase in cadherin levels was observed.
Furthermore, α-derivatives of cis-monounsaturated fatty acids are capable of inducing cadherin expression. Cadherin is a cellular adhesion protein. Cells expressing cadherin are often not displaced from their tissue location as they adhere to the surrounding cells. Tumour cells that lose the capacity to synthesise this protein can migrate from the tissue in which they were generated to other body tissues where they can develop a new tumour focus by the process known as metastasis. In treatments with α-derivatives of cis-monounsaturated the fatty acids, a significant increase in cadherin levels was observed (FIG. 4). The invasive capacity of cancer cells was also investigated in a culture plate invasion model. […] Then, an area of the culture dish is scraped and the number of cells invading this region at various times, in the presence and absence of the anti-metastasis compound is counted.

Assay [9] deals with human brain cancer (SF767), human lung cancer cells (A549), human pancreas cancer cells (BXPC3). Kind of assay: Na-OHOD alone and combined with anti-tumour pharmaceuticals in immune-deprived mice with human tumours. In kind it is in vivo. As to conditions: Na-OHOD 600 mg/kg. The procedure:
FIG. 8A. Effect of Na-OHOD (sodium salt of OHOD) and combinations with various pharmaceuticals: temozolomide (TMZ), erlotinib, gemcitabine and cisplatin (cis-Pt) on various types of human cancers in models. Effect of treatments with vehicle (Control), temozolomide (TMZ, 80 mg/kg), Na-OHOD (OHOD, 600 mg/kg) and TMZ plus Na-OHOD (simultaneously at the same doses) for 60 days in immune-deprived mice infected with human brain cancer (SF767).
FIG. 8B. Effect of Na-OHOD (sodium salt of OHOD) and combinations with various pharmaceuticals: temozolomide (TMZ), erlotinib, gemcitabine and cisplatin (cis-Pt) on various types of human cancers in models. Idem, with Na-OHOD (OHOD, 600 mg/kg), erlotinib (Erlotinib, 40 mg/kg), cisplatin (cis-Pt, 100 mg/kg), plus erlotinib (OHO Er) or Na-OHOD plus cisplatin (OHO Pt) in nude mice infected with human lung cancer cells (A549).
FIG. 8C. Effect of Na-OHOD (sodium salt of OHOD) and combinations with various pharmaceuticals: temozolomide (TMZ), erlotinib, gemcitabine and cisplatin (cis-Pt) on various types of human cancers in models. Idem with Na-OHOD (OHOD, 600 mg/kg), Gemcitabine (Gemcitab, 40 mg/kg) or Na-OHOD plus Gemcitabine (OHO Gem) using the same doses in nude mice infected with human pancreas cancer cells (BXPC3). […]

Regarding `CCCCCCCC/C=C\CCCCCCC(O)C(=O)O` (stereo not drawn) [OHOD, α-Hydroxy-cis-Δ9-octadecenoic], the Anti-tumour effect result in assay [1], in assay [2], in [3], in [4], in assay [5] and in [6] was “+++” in each case. The Anti-tumour effect result in assay [7] was “+++”. Moreover, the Mechanism of action result in assay [1] is reported as “A”; in assay [2], “P D”; in assay [3], “P D A”; in assay [4], “P A”. The “increase in the levels of cadherin” value in assay [8] was found to be 73.6±5.4%.
`CCCCCCCC/C=C\CCCCCCC(O)C(=O)[O-].[Na+]` (stereo not shown) [Na-OHOD]: in assay [9], the “anti-tumour effectiveness of Na-OHOD alone vs temozolomide, erlotinib, gemcitabine, cisplatin” value is “more effective”.
